Source: patent KR20240014570A, “양전하성 응집-유도 방출 화합물 및 이의 용도” (priority 2020, dated 2022)

Legend:
[1] = tested on: S.aureus (그람양성, ATCC 25923); experiment: Photodynamic antibacterial effect, agar plate colonies; format: cell-based; details: 1 μM; white light 25 mW/cm2, 10 min
[2] = tested on: Gram-negative bacteria (그람음성균): E.coli, ESBL-EC; format: cell-based; details: 1 μM; white light 25 mW/cm2, 10 min
all strains (모든 균주) = experiment: Photodynamic antibacterial effect, all strains; format: cell-based; details: 3 μM, with or without white light
[3] = tested on: ESBL E.coli (ESBL-EC, 그람 음성, ATCC BAA-198); experiment: microbe, parasite or virus in culture; details: Escherichia coli, ATCCBAA198, 10 min, read-out: inhibition of ESBL-EC growth
[4] = tested on: ESBL E.coli (ESBL-EC, 그람 음성, ATCC BAA-198); details: same conditions: 3 μM, white light 25 mW/cm2, 10 min

Structure (SMILES): C=Cc1c(C)c2cc3nc(c(CC(=O)O)c4[nH]c(cc5nc(cc1[nH]2)C(C)=C5CC)c(C)c4C(=O)O)C(CCC(=O)O)C3C (stereo not shown) [Ce6]
- photodynamic antibacterial activity against Gram-positive bacteria [1]: 광역학적 항균 활성을 보였지만
- photodynamic antibacterial effect against Gram-negative bacteria [2]: 유의한 효과를 확인할 수 없었다

Structure (SMILES): C(=Cc1ccnc2ccccc12)c1ccc(-c2ccc(N(c3ccccc3)c3ccccc3)cc2)s1 [DQVTA]
- bacterial colonies (all strains (모든 균주)): 변하지 않음

Structure (SMILES): CN(C)c1ccc2nc3ccc(=[N+](C)C)cc-3sc2c1 [MB, 메틸렌 블루]
- inhibition at 3 µM [3]: ~50%
- photodynamic antibacterial activity against Gram-positive bacteria [1]: 광역학적 항균 활성을 보였지만
- photodynamic antibacterial effect [4]: 유의한 광역학적 항균 효과를 나타내지 않았고
- photodynamic antibacterial effect against Gram-negative bacteria [2]: 유의한 효과를 확인할 수 없었다
